Assays:
primary mouse B cells = assay: B cell activation after anti-IgM stimulation, CD86 staining; assay type: cell-based
Procedure: Lastly, we assessed the ability of the PROTACs to abrogate the activation of primary mouse B cells in response to B cell receptor stimulation. For this purpose, primary B cells were treated with anti-IgM for 18 h,[36],[37] followed by staining for CD86, a B cell activation surface marker (Figure 8; Supporting Figure 7). […]
(§1) supplemented with 300 mM imidazole). The His tag was cleaved by the addition of TEV protease with concomitant dialysis overnight into cleavage buffer (50 mM Tris, pH 8.0, 0.5 mM EDTA, 1 mM DTT) at 4°C. The resulting soluble protein was passed ov er Ni -NTA beads to remove the protease and purified further by gel filtration on a HiLoad_16/60_Superdex_75 (GE Healthcare) column equilibrated with 20 mM Tris, pH 8.0, 50 mM NaCl, 1 mM DTT. The pure protein was then flash-frozen in liquid nitrogen and stored at −80°C.
C57BL/6 mice were purchased from Harlan (Rehovot, Israel) and maintained in a pathogen-free facility, experiments were carried on 8-12 weeks old male mice. All exp eriments with mice were approved by the Weizmann Institute Animal Care and Use Committee.
Splenic cells from C57BL/6 mice were isolated by forcing spleen tissue through mesh into PBS containing 2% fetal calf serum and 1 mM EDTA and red blood cells were depleted by lysis buffer. Cells were cultured in 96-well U-b ottom dishes (1x10^6 cells/m L in RPMI 10% […]
nM, 10 nM, 1 nM, 0.1 nM) for 24 hours at 37° C in 5% humidified CO2 incubator. Following a 24 hours incubation, cells were stimulated with anti-IgM overnight (5 µg/mL, Sigma-Aldrich). Subsequently, cells were stained with anti-B220 (clone RA3-6B2, Biolegend) and anti-CD86 (clone GL-1, Biolegend) antibodies for 30 minutes at 4°C. Single cell suspensions were analyzed by a flow cytometer (CytoFlex, Beckman Coulter).
Cells were analyzed by intensity based, label-free mass spectrometry based proteomics.
Sample preparation: 106 Ramos cells were treated in four replicates with either compound or DMSO for 24 hours. Cells were then washed twice by centrifuge at 200 rcf, 4°C for 5 minutes, removing the supernatant and washed with ice cold PBS. Samp les were then centrifuged at 200 rcf, 4°C for 5 minutes, then supernatant was removed and samples were frozen at -80°C.
Samples were dispersed in 75 µl of 50 mM ammonium bicarbonate, and transferred to 1.8 mL glass vials. 75 µl of 10% SDS in 50 mM ammonium bicarbonate were added and the samples were heated to 96° C for 6 minutes. The samples were sonicated thoroughly in a sonication bath until the DNA was sheared as indicated by reduction in viscosity to level enabling easy pipettation. Total protein concentration was estimated using BCA as say and 30 µg from each sample was taken for the experiment.

BTK kinase domain = biological target: T1, BTK kinase domain (Homo sapiens, UniProt Q06187); assay: LC-MS covalent binding and ibrutinib competition assay with recombinant BTK kinase domain; details: for displacement by ibrutinib (ibrutinib adduct formation): 40 μM ibrutinib added to preformed complex; for displacement by ibrutinib (ibrutinib adduct formation) / time scale of exchange / dissociation of the covalent complex: 37 °C; for displacement by ibrutinib (ibrutinib adduct formation) / protein labeled by the PROTAC / formation of covalent complex with BTK: LC-MS; for time scale of exchange / dissociation of the covalent complex: 40 μM ibrutinib; for protein labeled by the PROTAC / formation of covalent complex with BTK: 3 μM compound + 2 μM BTK
T1 construct: human BTK kinase domain (residues 387–659); 6xHis (N, cleaved yes); TEV protease cleavage site (N, cleaved yes); made in house; virus produced in Sf9, expression in Tni insect cells
T1 sequence (Q06187 387-659): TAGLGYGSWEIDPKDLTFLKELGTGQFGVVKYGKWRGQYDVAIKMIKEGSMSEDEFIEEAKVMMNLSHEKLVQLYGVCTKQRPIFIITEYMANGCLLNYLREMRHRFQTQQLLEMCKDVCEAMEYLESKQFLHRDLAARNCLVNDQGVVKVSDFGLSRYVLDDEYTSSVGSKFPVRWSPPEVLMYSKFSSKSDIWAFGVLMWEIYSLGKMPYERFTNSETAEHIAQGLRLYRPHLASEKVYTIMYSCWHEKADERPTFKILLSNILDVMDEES
Procedure: We also used LC-MS to directly observe the formation of covalent complexes with recombinant BTK and measure their dissociation kinetics (Figure 6C, D, Supporting Figure 5A).
Binding experiments were performed in Tris 20 mM pH = 8, 50 mM NaCl, and 1 mM DTT. BTK kinase domain was diluted to 2 μM in buffer, and 3 μM PROTAC was added by adding 1/100th volume from a 300 μM solution. The PROTACs were incubated with BTK at room temperature for various times. For testing by LCMS, 24 μL of the solution was mixed with 6 μL of 2.4% formic acid, and 10 μL was injected to LCMS.
For binding experiments in the presence of glutathione, freshly dissolved reduced glutathione was incubated at 6.14 mM with 4 μM compounds for 30 min at room temperature in Tris 20 mM pH = 8 and 50 mM NaCl. At this point BTK was added to a concentration of 2 μM (diluting the GSH to 5 mM and the compounds to 3.25 μM), and LC-MS was used as described previously to follow the covalent labeling of BTK.
For data analysis, the raw spectra were deconvoluted using a 27 000:37 000 Da window and 1 Da resolution. The signal from masses 27 000:30 000 and 34 000:37 000 (which contained no peaks) was averaged and subtracted from the whole signal.
Cloning and Over Expression of BTK
Human wild type BTK full length was obtained from the ORFeome (ref: http://www.orfeomecollaboration.org/), from which the full human BTK gene (clone HsCD00433457) was inserted into the mammalian expression vector pCDNA3.1. In parallel, a mutant BTK C481S was constructed by assemble 2 PCR products harboring the desired mutation and cloned into pCDNA3.1. Both constructs contain a C -terminal 6x-His tag and three amino acids sequence (GTK) linker between the BTK coding sequence and the His tag.
The expression of hBTK is driven by the CMV promoter. U2OS cells (ATCC HTB-96) were grown to 70% confluency in a 10 cm plate, transfected with either hBTK plasmid (BTK WT or C481S) using Lipofectamine 2000 reagent (Thermo Fisher Scientific) according to manufacturer’s instructions. Cells were subsequently incubated for 48 hours post transfection, trypsinized and resuspended in 12 mL medium, and divided 2 mL per well in a 6-well plates and left to adhere over-night. 72 hours post transfection 100 nM PROTACs were added for 24 hours and BT K was measured by performing western blot procedure as described in the main […]
Expression and Purification of Recombinant BTK
The expression and purification of human BTK kinase domain (residues 387–659) was based on the method used by Bradsha w JM. et al1. The kinase domain was inserted into pFastBac-1 with an N-terminal 6× -His tag followed by a TEV protease cleavage site (The plasmid was a gift from Dr. Ville Paavilainen, University of Helsinki). Viruses were produced […]
cells by infection of 2 L of cultured cells with 1:200 mL virus solution such that cell growth was terminated after 3 days. The cells were collected by centrifugation (800 g for 15 minutes), and the pellet was resu spended in 50 mL ly sis buf fer (10 mM Hepes, pH 7.5, 400 mM NaCl, 1.5 mM DTT) supplemented with 1× protease inhibitor cocktail (Roche). The cells were lysed by five passages through a cell homogenizer. The cellular debris wer e pelleted by centrifugation (30,000 g for 30 minutes). The protein was bound in batch to nickel– nitrilotriacetic acid agarose beads in binding buffer (lysis buffer supplemented with 20 mM imidazole) for 4 hours at 4°C. The beads were washed with additional binding buffer ( four 5 mL washes), and the protein was eluted with four 0.5 mL portions of elution buffer (lysis buffer […]
as §1, with “pure protein was then flash-frozen in liquid nitrogen and stored at −80°C.” left out

[1] = anti-IgM stimulation, PROTAC 24 h

Compound | inhibition of B cell activation compared to ibrutinib (primary mouse B cells; at 1 μM) | displacement by ibrutinib (ibrutinib adduct formation) (BTK kinase domain) | time scale of exchange / dissociation of the covalent complex (BTK kinase domain) [h] | protein labeled by the PROTAC (BTK kinase domain) | inhibition of B cell activation (CD86) (primary mouse B cells; [1]) | inhibition of B cell activation compared to ibrutinib (primary mouse B cells; [1]) | formation of covalent complex with BTK (BTK kinase domain; room temperature) | ibrutinib labeling of BTK in presence of the PROTAC (BTK kinase domain; 4 μM ibrutinib, 1 h, room temperature) [%] | time to full ibrutinib labeling of BTK in presence of preincubated PROTAC (BTK kinase domain; 4 μM ibrutinib, room temperature) [h]
N#CC(=CCCCCOCCOCCOCCOCCOc1cccc2c1C(=O)N(C1CCC(=O)NC1=O)C2=O)C(=O)N1CCCC(n2nc(-c3ccc(Oc4ccccc4)cc3)c3c(N)ncnc32)C1 (stereo not drawn) [RC-2] | superior activity to ibrutinib | gradual displacement of the PROTAC by ibrutinib | 10 to 20 | – | – | – | – | – | –
Nc1ncnc2c1c(-c1ccc(Oc3ccccc3)cc1)nn2C1CCCN(C(=O)C=CCOCCOCCOCCOCCOCCOc2cccc3c2C(=O)N(C2CCC(=O)NC2=O)C3=O)C1 (stereo not drawn) [IR-1] | – | no ibrutinib adduct was observed even after 28 h | – | 80–85% | – | – | – | – | –
Nc1ncnc2c1c(-c1ccc(Oc3ccccc3)cc1)nn2C1CCCN(C(=O)C=CCCCCOCCOCCOCCOCCOc2cccc3c2C(=O)N(C2CCC(=O)NC2=O)C3=O)C1 (stereo not drawn) [IR-2] | – | no ibrutinib adduct was observed even after 28 h | – | 80–85% | strongest effect | superior inhibition compared to ibrutinib | – | – | –
Nc1ncnc2c1c(-c1ccc(Oc3ccccc3)cc1)nn2C1CCCN(C(=O)CCCCCCOCCOCCOCCOCCOc2cccc3c2C(=O)N(C2CCC(=O)NC2=O)C3=O)C1 (stereo not drawn) [NC-1] | – | – | – | – | strongest effect | superior inhibition compared to ibrutinib | forms no covalent adduct | 100 | ≤ 1
CC(C)(C=C(C#N)C(=O)N1CCCC(n2nc(-c3ccc(Oc4ccccc4)cc3)c3c(N)ncnc32)C1)CCCOCCOCCOCCOCCOc1cccc2c1C(=O)N(C1CCC(=O)NC1=O)C2=O (stereo not drawn) [RC-3] | superior activity to ibrutinib | gradual displacement of the PROTAC by ibrutinib | 10 to 20 | – | – | – | extremely fast | – | –

From publication PMC7349657, “Efficient Targeted Degradation via Reversible and Irreversible Covalent PROTACs” (Journal of the American Chemical Society, 2020)
